In US12459951B2, “Compounds that interact with RAS superfamily proteins for treatment of cancers, inflammatory diseases, rasopathies, and fibrotic disease” (SHY Therapeutics, LLC, priority 2022, dated 2025):
Like-named read-outs stand apart in the source and are kept apart here.

How the values were obtained:
[1] = tested on: KRas Q61H mutant; assay: Ras GTP Binding Domain Inhibition Assay (Ras Superfamily Assay); conditions: 20 μM compound; for KRas Q61H mutant + SOS: % inh.: with SOS; for KRas Q61H mutant: % inh.: without SOS
Summary of the method: (§1)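 Binding of 100 nM fluorescent GTP (Cy3 or Cy5, 45 min, room temperature) was read after washes from plate-captured His-tagged protein. Beforehand, compounds at 20 μM or in dilution series for IC50 sat 3 h on the protein in Tris buffer pH 7.4 or 7.0 with 1% DMSO, Sos GEF optionally added for the last hour.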

[2] = tested on: KRas G12C mutant; assay: as above; conditions: 20 μM compound; for KRas G12C mutant + SOS: % inh.: with SOS; for KRas G12C mutant: % inh.: without SOS
Summary of the method: as §1

[3] = molecular target: T1, Rho-A (Homo sapiens, UniProt P61586); assay: as above; conditions: read-out: Rho-A: % inh..
T1 construct: made in house
Summary of the method: as §1

[4] = tested on: NCI-H358 (expressing KRas G12C mutant); assay: Proliferation Assay (Cell Viability Assay); format: cell-based; conditions: Homo sapiens
Description: (§2) Cell lines: these Human tumor-derived cell lines were purchased from American Type Culture Collection. Human tumor-derived pancreatic cancer cell line MiaPaca-2 (expressing KRAS G12C mutant) and Panc-1 (expressing KRas G12D mutant), and Human non-small cell lung cancer (NSCLC) cell line A549 (expressing KRas G12S mutant), and Human melanoma cell line A375 (wild type Kras) were grown in complete DMEM-High Glucose medium. Human tumor-derived pancreatic cancer cell lines SU86.86 (expressing KRas G12D mutant), BxPC3 (expressing wild type K-Ras), and Human non-small cell lung cancer (NSCLC) cell lines NCI-H441 (expressing KRas G12S mutant), NCI-H1975 (expressing wild type KRas), NCI-H358 (expressing KRas G12C mutant), NCI-H1299 (expressing NRas Q61H mutant), and Human colon cancer cell line SW-620 (expressing KRas G12V mutant), Human triple negative breast cancer cell line HCC-1806 (expressing wild type KRas), and Human tumor-derived multiple myeloma cell line MM.1R (expressing wild type KRAS), were grown in RPMI 1640 medium. Human tumor-derived breast cancer cell line BT-549 (expressing wild type KRAS) was grown in RPMI 1640 medium in the presence of 11.8U insulin. Human tumor-derived pancreatic cancer cell line HPAF-II (expressing KRas G12D mutant), Human triple negative breast cancer cell line BT-20 (expressing wild type KRas), and Human colon cancer cell line LS123 (expressing KRas G12S mutant), were grown in EMEM medium. Human tumor-derived pancreatic cancer cell line CF-PAC1 (expressing KRas G12V mutant) was frown in IMDM medium, and Human colon cancer cell line HT29 (expressing wild type KRas) was grown in McCoy's 5A medium. The colon cancer cell line GP2d (expressing KRas G12D mutant) was purchased from MilliporeSigma and grown in DMEM-High Glucose medium. All cell lines were supplemented with penicillin (100 U/mL), streptomycin (100 μg/mL), and 10% heat-inactivated FBS at 37° C. in a humidified incubator with 5% CO2.
(§3) Method: Cells were plated at 2000 to 5000 cells/well density in 96-wells plate and cultured overnight. Small molecules that were tested were added to the cells in the final concentration of 10 μM in the presence of 0.3% DMSO and 10% FBS, and incubated for 2-4 days at 37° C. in a humidified incubator with 5% CO2. For IC50 value determination, serial dilutions of compounds were added to cells under the same conditions.
(§4) Assay: At the end of the incubation period, cell viability was determined using the CellTiter 96® Aqueous One Solution Cell Proliferation Assay according to manufacturer specifications (Promega, Madison, WI). The percentage of small molecules inhibition of cellular proliferation was calculated from raw data.

[5] = tested on: A375 (wild type Kras); assay: Proliferation Assay (Cell Viability Assay); format: cell-based; conditions: Homo sapiens, A-375
Description: as §2, §3, §4

[6] = tested on: GP2d (expressing KRas G12D mutant); assay: Proliferation Assay (Cell Viability Assay); format: cell-based; conditions: Homo sapiens
Description: as §2, §3, §4

[7] = tested on: MM.1R (expressing wild type KRAS); assay: Proliferation Assay (Cell Viability Assay); format: cell-based; conditions: Homo sapiens, read-out: MM.1R IC50 (nM) Multiple Myloma
Description: as §2, §3, §4

[8] = tested on: BT-549 (expressing wild type KRAS); assay: Proliferation Assay (Cell Viability Assay); format: cell-based; conditions: Homo sapiens
Description: as §2, §3, §4

[9] = Proliferation assay, NCI-H358, read-out: NCI-H358 IC50 (nM) NSCLC
[10] = Proliferation assay, A375, read-out: A375 IC50 (nM) Melanoma
[11] = Proliferation assay, read-out: GP2d IC50 (nM) Colorectal
[12] = BT-549, Proliferation assay, BT549, read-out: BT549 IC50 (nM) TNBC

T1 sequence (P61586 whole entry): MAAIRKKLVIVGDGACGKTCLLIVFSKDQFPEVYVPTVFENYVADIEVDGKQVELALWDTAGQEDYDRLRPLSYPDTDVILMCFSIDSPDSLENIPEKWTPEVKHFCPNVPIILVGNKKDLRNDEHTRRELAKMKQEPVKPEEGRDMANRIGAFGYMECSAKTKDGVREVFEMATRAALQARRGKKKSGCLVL

Compound | KRas Q61H mutant + SOS: % inh. [1] | KRas Q61H mutant: % inh. [1] | KRas G12C mutant + SOS: % inh. [2] | KRas G12C mutant: % inh. [2] | inhibition at 20 µM [3] [%] | IC50 [4, 9] [nM] | IC50 [5, 10] [nM] | IC50 [6, 11] [nM] | IC50 [7] [nM] | IC50 [8, 12] [nM] | IC50 ([4]; NCI-H358, NSCLC, KRas G12C, read-out: Proliferation assay IC50) [nM] | IC50 ([5]; A375, melanoma, KRas WT, read-out: Proliferation assay IC50) [nM] | IC50 ([6]; colon, KRas G12D, read-out: Proliferation assay IC50) [nM] | IC50 ([8]; BT-549, Breast (TNBC), KRas WT, read-out: Proliferation assay IC50) [nM]
Cc1c(-c2ccn(C(C)C)n2)cn2nc(-c3ccccn3)nc(O)c12 [Compound 8, 6-(1-Isopropyl-1H-pyrazol-3-yl)-5-methyl-2-(pyridin-2-yl)pyrrolo[2,1-f][1,2,4]triazin-4-ol] | 0 (0 = 0% inhibition) | 0 (0 = 0% inhibition) | A (A = 1-25% inhibition) | 0 (0 = 0% inhibition) | 0 | – | – | – | – | – | – | – | – | –
COc1cc(Nc2nc(-c3nccn3C)nn3cc(-c4ccccn4)c(C)c23)ncn1 [Compound 94, N-(6-Methoxypyrimidin-4-yl)-5-methyl-2-(1-methyl-1H-imidazol-2-yl)-6-(pyridin-2-yl)pyrrolo[2,1-f][1,2,4]triazin-4-amine] | C (C = 50-75% inhibition) | B (B = 26-49% inhibition) | B (B = 26-49% inhibition) | B (B = 26-49% inhibition) | 76 to 100 | – | – | – | – | – | – | – | – | –
COc1ccnc(Nc2nc(-c3nccn3C)nn3cc(-c4ccn(C(F)F)n4)c(C)c23)n1 [Compound 95, 6-(1-(Difluoromethyl)-1H-pyrazol-3-yl)-N-(4-methoxypyrimidin-2-yl)-5-methyl-2-(1-methyl-1H-imidazol-2-yl)pyrrolo[2,1-f][1,2,4]triazin-4-amine] | C (C = 50-75% inhibition) | C (C = 50-75% inhibition) | B (B = 26-49% inhibition) | B (B = 26-49% inhibition) | 76 to 100 | – | – | – | – | – | – | – | – | –
Cc1c(-c2ccn(C)n2)cn2nc(-c3nccn3C)nc(Nc3cc(C4CC4)[nH]n3)c12 [Compound 104, N-(5-Cyclopropyl-1H-pyrazol-3-yl)-5-methyl-2-(1-methyl-1H-imidazol-2-yl)-6-(1-methyl-1H-pyrazol-3-yl)pyrrolo[2,1-f][1,2,4]triazin-4-amine] | – | – | – | – | – | > 50 | > 50 | 10 to 50 | < 1 | 10 to 50 | – | – | – | –
COc1ccnc(Nc2nc(-c3nccn3C)nn3cc(-c4ccn(C)n4)c(C)c23)c1 [Compound 102, N-(4-Methoxypyridin-2-yl)-5-methyl-2-(1-methyl-1H-imidazol-2-yl)-6-(1-methyl-1H-pyrazol-3-yl)pyrrolo[2,1-f][1,2,4]triazin-4-amine] | – | – | – | – | – | 1 to 10 | 1 to 10 | 10 to 50 | < 1 | 1 to 10 | – | – | – | –
Cc1c(-c2ccn(C)n2)cn2nc(-c3nccn3C)nc(Nc3cc4n(n3)CCO4)c12 [Compound 124, N-(5-Methyl-2-(1-methyl-1H-imidazol-2-yl)-6-(1-methyl-1H-pyrazol-3-yl)pyrrolo[2,1-f][1,2,4]triazin-4-yl)-2,3-dihydropyrazolo[5,1-b]oxazol-6-amine] | – | – | – | – | – | 1 to 10 | 1 to 10 | 1 to 10 | < 1 | 1 to 10 | – | – | – | –
Cc1c(-c2ccn(C(C)C)n2)cn2nc(-c3nccn3C)nc(Nc3nccn3C)c12 [Compound 93, 6-(1-Isopropyl-1H-pyrazol-3-yl)-5-methyl-N,2-bis(1-methyl-1H-imidazol-2-yl)pyrrolo[2,1-f][1,2,4]triazin-4-amine] | D (D = 76-100% inhibition) | C (C = 50-75% inhibition) | C (C = 50-75% inhibition) | D (D = 76-100% inhibition) | 76 to 100 | – | – | – | – | – | – | – | – | –
COc1cc(Nc2nc(-c3nccn3C)nn3cc(-c4ccn(C(C)C)n4)c(C)c23)ncn1 [Compound 6, 6-(1-Isopropyl-1H-pyrazol-3-yl)-N-(6-methoxypyrimidin-4-yl)-5-methyl-2-(1-methyl-1H-imidazol-2-yl)pyrrolo[2,1-f][1,2,4]triazin-4-amine] | C (C = 50-75% inhibition) | C (C = 50-75% inhibition) | C (C = 50-75% inhibition) | C (C = 50-75% inhibition) | 76 to 100 | 10 to 50 | > 50 | > 50 | 1 to 10 | > 50 | < 150 | < 150 | 150 to 500 | < 150
Cc1c(-c2ccn(C)n2)cn2nc(-c3nccn3C)nc(Nc3cc4n(n3)CCC4)c12 [Compound 100, N-(5,6-Dihydro-4H-pyrrolo[1,2-b]pyrazol-2-yl)-5-methyl-2-(1-methyl-1H-imidazol-2-yl)-6-(1-methyl-1H-pyrazol-3-yl)pyrrolo[2,1-f][1,2,4]triazin-4-amine] | – | – | – | – | – | > 50 | > 50 | 10 to 50 | < 1 | 10 to 50 | – | – | – | –
CO[C@H]1CC[C@@H](Nc2nc(-c3ccccn3)nn3cc(-c4ccn(C(C)C)n4)c(C)c23)C1 (racemic) [Compound 9, rac 6-(1-Isopropyl-1H-pyrazol-3-yl)-N-((1R,3S)-3-methoxycyclopentyl)-5-methyl-2-(pyridin-2-yl)pyrrolo[2,1-f][1,2,4]triazin-4-amine] | 0 (0 = 0% inhibition) | A (A = 1-25% inhibition) | 0 (0 = 0% inhibition) | B (B = 26-49% inhibition) | 0 | – | – | – | – | – | – | – | – | –
Cc1c(-c2ccn(C)n2)cn2nc(-c3nccn3C)nc(Cl)c12 [Compound 99, 4-Chloro-5-methyl-2-(1-methyl-1H-imidazol-2-yl)-6-(1-methyl-1H-pyrazol-3-yl)pyrrolo[2,1-f][1,2,4]triazine] | – | – | B (B = 26-49% inhibition) | B (B = 26-49% inhibition) | – | – | – | – | – | – | – | – | – | –
